Measured values published in PMC11653243, “Enhancing Phototoxicity in BODIPY‐Perylene Charge Transfer Dyads by Combined Iodination and Mesylation” (Chemistry (Weinheim an Der Bergstrasse, Germany), 2024).
Read-outs that look alike come from different tables or passages of the source.

Legend:
MCF‐7 cells [1] = tested on: MCF‐7 cells; design: method as in PMID 36807947; conditions: 470 nm LED, 17±1.64 J/cm^2, published previously, read-out: Light IC50 (converted); cited from earlier work
HeLa cells = tested on: HeLa cells; design: method as in PMID 31743947; conditions: 9.6 J/cm^2, 500 nm irradiation; cited from earlier work
CHO cells [2] = experiment: ROS imaging with H2DCFDA in live cells; type: cell-based, Chinese Hamster; conditions: 30 μM, 17 h; 488 nm (0.38 mW/cm^2) for 5 minutes
Method: To study the production of ROS in a live cell environment a commercial ROS dye, H2DCFDA was used. CHO and MCF‐7 cells were incubated with MB2PI (30 μM, 17 h), washed with PBS and co‐stained with H2DCFDA (5 μM, 30 min). To ensure no photoactivation of MB2PI, emission from H2DCFDA was collected alone prior to the excitation of the BODIPY. The complex was then irradiated continuously at 488 nm (0.38 mW/cm^2) for 5 minutes. […] Weak emission of H2DCFDA was observed prior to irradiation, consistent with the low cytotoxicity of the complex. However, after irradiation, the fluorescence intensity of the ROS dye increases dramatically indicating ROS production, consistent with the high phototoxicity of MB2PI in both test cell lines. The higher phototoxicity of MB2PI in MCF‐7 cells restricted the ROS imaging study to CHO cells as the MCF‐7 cells began to die rapidly upon irradiation. Controls completed by adding H2DCFDA in test cells without MB2PI confirmed no ROS production with or without irradiation at 488 nm.
Figure S32. DPBF (10 mM) 1O2 scavenger assay with B2P, MB2P, B2PI or MB2PI in methanol from 0-210 seconds irradiation, where absorbance at 410 nm was recorded every 30 seconds.
CHO and MCF-7 cells were treated with MB2PI (30 µM, 17 h) for the ROS imaging studies. […]
A 63x oil immersion objective was used to acquire images. The irradiance was determined using a power meter from Edmund Optics. […]

CHO cells [3] = experiment: Hypoxic phototoxicity (CoCl2 induced hypoxia); type: cell-based, Chinese Hamster; conditions: Cricetulus griseus, 300 μM CoCl2 4 h, 470 nm LED, maximum 1 μM tested, read-out: hypoxic IC50 (light)
Method: (§1) Cobalt chloride (CoCl2), a popular chemical hypoxia inducer, was added to the cells (after incubation with B2PI or MB2PI) at a total concentration of 300 μM CoCl2 in media and incubated for 4 h to mimic hypoxic conditions. In comparison to low‐oxygen induced hypoxia, this method stabilises hypoxia inducible factor 1 alpha subunit (HIF‐1α) for some hours after treatment, allowing a greater window for the phototoxicity studies.[52] We have previously confirmed the chemical induction of hypoxia with CoCl2 using an enzyme linked immunosorbent assay to detect HIF‐1α in cell lysates.[53] The cells were irradiated immediately upon removal of the media/CoCl2 solution as per the normoxic phototoxicity protocol.
(§2) Dark‐ and photo‐toxicity studies were performed by seeding CHO and MCF‐7 cells in clear 96‐well plates (Nunc) and treating with varying concentrations of B2P, MB2P, B2PI and MB2PI. Phototoxicity experiments were carried out using a 470 nm LED. For hypoxic phototoxicity studies, hypoxia was mimicked by adding CoCl2 to the cells prior to irradiation. Cell viability was determined using the alamar blue assay and absorbance measured with a BMG LABTECH CLARIOstar plate reader.
(§3) Hypoxic Phototoxicity Studies
(§4) Hypoxic phototoxicity studies were performed as per routing phototoxicity protocol. Hypoxia […]
(§5) A 1 M stock of CoCl2 in sterile 1X PBS […]

MCF‐7 cells [4] = experiment: Hypoxic phototoxicity (CoCl2 induced hypoxia); type: cell-based; conditions: Homo sapiens, MCF7, 300 μM CoCl2 4 h, 470 nm LED, maximum 1 μM tested, read-out: hypoxic IC50 (light)
Method: as §1, §2, §3, §4, §5

**Q.** For CC1=C(I)C(C)=[N+]2C1=C(c1ccccc1)c1c(C)c(-c3ccc4c5cccc6cccc(c7cccc3c74)c65)c(C)n1[B-]2(F)F [B2PI], which IC50 (MCF‐7 cells [1]) is on record?
**A.** 235 nM

**Q.** For CC1=CC(C)=[N+]2C1=C(c1ccccc1)c1c(C)c(-c3ccc4c5cccc6cccc(c7cccc3c74)c65)c(C)n1[B-]2(F)F [B2P], which “phototoxic index (PI)” value (HeLa cells) is on record?
**A.** 1041

**Q.** Which results are given for CC1=C(c2ccc3c4cccc5cccc(c6cccc2c63)c54)C(C)=[N+]2C1=C(c1c(C)cc(C)cc1C)c1c(C)c(I)c(C)n1[B-]2(F)F [MB2PI]?
**A.** ROS production (H2DCFDA fluorescence) after irradiation (CHO cells [2]): increased production of ROS; IC50 (CHO cells [3]): > 1000 nM; IC50 (MCF‐7 cells [4]): > 1000 nM
